From the NIST ThermoML archive (doi:10.1016/j.fluid.2012.08.020)
Where “and” joins values, the source holds several entries; their conditions need not be identical. Equal values may be shown once.

Key:
[1] = molar enthalpy of vaporization or sublimation; conditions: Liquid, Calvet Calorimetry

Cc1ccccc1-c1ccccc1 [2-methylbiphenyl]
Liquid, Transpiration method
Conditions	vapor or sublimation pressure [kPa]
301 K	0.00376
303.5 K	0.00477
305.9 K	0.0056
308.4 K	0.00692
310.9 K	0.00851
313.4 K	0.01043
315.9 K	0.0128
318.4 K	0.01527
320.8 K	0.0183
323.3 K	0.02232
325.8 K	0.02641
328.3 K	0.0314
330.7 K	0.03763
333.2 K	0.04446
335.7 K	0.05183
338.1 K	0.06106
340.6 K	0.07203
343.1 K	0.08401
345.6 K	0.09811
348.1 K	0.1141

CC(C)(C)c1cccc(-c2ccccc2)c1 [3-(1,1-dimethylethyl)-1,1'-biphenyl]
Liquid
Conditions	vapor or sublimation pressure [kPa]
323 K, Transpiration method	0.00191
325.9 K, Transpiration method	0.00244
328.5 K, Transpiration method	0.00298
331 K, Transpiration method	0.00368
333.4 K, Transpiration method	0.00447
335.3 K, Transpiration method	0.00514
338.2 K, Transpiration method	0.00653
340.8 K, Transpiration method	0.00801
343.3 K, Transpiration method	0.00917
345.5 K, Transpiration method	0.0113
348.1 K, Transpiration method	0.01363
350.7 K, Transpiration method	0.01622
353.4 K, Transpiration method	0.01957
356 K, Transpiration method	0.02333
358.5 K, Transpiration method	0.0282
361.3 K, Transpiration method	0.03303
440.79 K, Ebulliometric method (Recirculating still)	2.117
459.53 K, Ebulliometric method (Recirculating still)	4.346
473.75 K, Ebulliometric method (Recirculating still)	7.152
486.07 K, Ebulliometric method (Recirculating still)	10.66
493.76 K, Ebulliometric method (Recirculating still)	13.5
501.46 K, Ebulliometric method (Recirculating still)	16.96
509.1 K, Ebulliometric method (Recirculating still)	21.07
518.78 K, Ebulliometric method (Recirculating still)	27.41
527.38 K, Ebulliometric method (Recirculating still)	34.27
537.26 K, Ebulliometric method (Recirculating still)	43.86
547.55 K, Ebulliometric method (Recirculating still)	56.03
558.29 K, Ebulliometric method (Recirculating still)	71.52
570.25 K, Ebulliometric method (Recirculating still)	92.61
582 K, Ebulliometric method (Recirculating still)	118.1

Conditions	Normal boiling temperature [°C]
Liquid, Ebulliometric method (Recirculating still)	301.34

CC(C)c1cccc(-c2ccccc2)c1 [3-(1-Methylethyl)-1,1'-biphenyl]
Liquid
Conditions	vapor or sublimation pressure
302.8 K, Transpiration method	0.00045 kPa
303.3 K, Transpiration method	0.00044 kPa
305.9 K, Transpiration method	0.00061 kPa
307.8 K, Transpiration method	0.0007 kPa
309.9 K, Transpiration method	0.0009 kPa
312.9 K, Transpiration method	0.00122 kPa
313.3 K, Transpiration method	0.00116 kPa
315.9 K, Transpiration method	0.00146 kPa
317.9 K, Transpiration method	0.00187 kPa
319.9 K, Transpiration method	0.00217 kPa
322.9 K, Transpiration method	0.00265 kPa and 0.00276 kPa
323.3 K, Transpiration method	0.0025 kPa
325.8 K, Transpiration method	0.00378 kPa
327.8 K, Transpiration method	0.00388 kPa
328 K, Transpiration method	0.00408 kPa
329.8 K, Transpiration method	0.00479 kPa
332.3 K, Transpiration method	0.00644 kPa
332.8 K, Transpiration method	0.0062 kPa
333.3 K, Transpiration method	0.0064 kPa and 0.00674 kPa and 0.0065 kPa
333.4 K, Transpiration method	0.00634 kPa and 0.00708 kPa
335.3 K, Transpiration method	0.0078 kPa
335.8 K, Transpiration method	0.00832 kPa
336.3 K, Transpiration method	0.00811 kPa and 0.0082 kPa
337.3 K, Transpiration method	0.00945 kPa
337.7 K, Transpiration method	0.00887 kPa
338 K, Transpiration method	0.00931 kPa
338.3 K, Transpiration method	0.00975 kPa
340.3 K, Transpiration method	0.01113 kPa
342.3 K, Transpiration method	0.01244 kPa
343.1 K, Transpiration method	0.01478 kPa and 0.01437 kPa
343.3 K, Transpiration method	0.01376 kPa and 0.01441 kPa
345.3 K, Transpiration method	0.01629 kPa and 0.01561 kPa
347.3 K, Transpiration method	0.01952 kPa and 0.01755 kPa
348.3 K, Transpiration method	0.01973 kPa and 0.02029 kPa and 0.02064 kPa
349.3 K, Transpiration method	0.02026 kPa
351.3 K, Transpiration method	0.02423 kPa
353.2 K, Transpiration method	0.02884 kPa
353.3 K, Transpiration method	0.02848 kPa
358.2 K, Transpiration method	0.04134 kPa
434.53 K, Ebulliometric method (Recirculating still)	2.17 kPa
452.99 K, Ebulliometric method (Recirculating still)	4.346 kPa
467.03 K, Ebulliometric method (Recirculating still)	7.152 kPa
479.19 K, Ebulliometric method (Recirculating still)	10.66 kPa
486.79 K, Ebulliometric method (Recirculating still)	13.5 kPa
494.39 K, Ebulliometric method (Recirculating still)	16.96 kPa
501.93 K, Ebulliometric method (Recirculating still)	21.07 kPa
511.48 K, Ebulliometric method (Recirculating still)	27.41 kPa
519.96 K, Ebulliometric method (Recirculating still)	34.27 kPa
529.73 K, Ebulliometric method (Recirculating still)	43.86 kPa
539.88 K, Ebulliometric method (Recirculating still)	56.03 kPa
550.47 K, Ebulliometric method (Recirculating still)	71.52 kPa
562.29 K, Ebulliometric method (Recirculating still)	92.61 kPa
573.95 K, Ebulliometric method (Recirculating still)	118.1 kPa

Conditions	Normal boiling temperature, Ebulliometric method (Recirculating still) [°C]	molar enthalpy, 323.15 K [kcal/mol]	molar enthalpy, 333.15 K [kcal/mol]	molar enthalpy, 343.15 K [kcal/mol]	molar enthalpy, 353.15 K [kcal/mol]	molar enthalpy, 363.15 K [kcal/mol]	molar enthalpy, 373.15 K [kcal/mol]
Liquid	293.39	–	–	–	–	–	–
[1]	–	17.8	17.5	17.3	17.1	16.8	16.6

Cc1cccc(-c2ccccc2)c1 [3-methylbiphenyl]
Liquid, Transpiration method
Conditions	vapor or sublimation pressure [kPa]
318.8 K	0.00702
320.4 K	0.00797
323.3 K	0.01012
325.5 K	0.01178
328.1 K	0.01408
330.3 K	0.01692
333.1 K	0.02024
336.1 K	0.02586
338.5 K	0.03025
340.4 K	0.03425
343.2 K	0.04154
346.4 K	0.05071
348.5 K	0.05569
350.8 K	0.06543
353.7 K	0.07738
356.2 K	0.09688
358.3 K	0.1068
360.8 K	0.1231
363.6 K	0.1459
365.8 K	0.1642

CC(C)(C)c1ccc(-c2ccc(C(C)(C)C)cc2)cc1 [4,4'-bis(1,1-dimethylethyl)-1,1'-biphenyl]
Crystal, Transpiration method
Conditions	vapor or sublimation pressure [kPa]
335.5 K	7.9e-05
338.5 K	0.00011
341.5 K	0.000146
343.5 K	0.000176
348.2 K	0.000291
351.5 K	0.000425
353.9 K	0.000537
358.5 K	0.000887
363.7 K	0.001398
365.5 K	0.001697
368.6 K	0.002328
370.5 K	0.002679
373.5 K	0.003653
373.7 K	0.003396
375.7 K	0.004092
378.2 K	0.005541
380.4 K	0.006527
382.5 K	0.007664
384.7 K	0.009379

Cc1ccc(-c2ccc(C)cc2)cc1 [4,4'-dimethylbiphenyl]
Crystal, Transpiration method
Conditions	vapor or sublimation pressure [kPa]
334.2 K	0.00389
339.3 K	0.00638
343.2 K	0.00955
349.2 K	0.01668
353.7 K	0.02516
354.6 K	0.02591
358.8 K	0.03834
363.7 K	0.05681
368.7 K	0.08722
374.5 K	0.1474
379.5 K	0.2146

CC(C)(C)c1ccc(-c2ccccc2)cc1 [4-(1,1-dimethylethyl)-1,1'-biphenyl]
Liquid, Ebulliometric method (Recirculating still)
Conditions	vapor or sublimation pressure [kPa]
448.41 K	2.117
467.65 K	4.346
482.23 K	7.152
494.83 K	10.66
502.69 K	13.5
510.59 K	16.96
518.4 K	21.07
528.31 K	27.41
537.1 K	34.27
547.22 K	43.86
557.74 K	56.03
568.72 K	71.52
580.98 K	92.61
593.09 K	118.1

Conditions	Normal boiling temperature [°C]
Liquid, Ebulliometric method (Recirculating still)	312.24

Cc1ccc(-c2ccccc2)cc1 [4-methylbiphenyl]
Conditions	Normal boiling temperature [°C]
Liquid, Ebulliometric method (Recirculating still)	274.4
